# From ChEMBL document CHEMBL5678818, “Discovery of potent SOS1 inhibitors that block RAS activation via disruption of the RAS-SOS1 interaction” (Proc Natl Acad Sci U S A, 2019)
# Legend:
# [1] = biological target: Calcium/calmodulin-dependent protein kinase type 1G (Homo sapiens) (UniProt Q96NX5); assay: Inhibition of CAMK1G (unknown origin) assessed as residual activity at 1000 nM by KINOMEscan analysis relative to control
# [2] = biological target: Calcium/calmodulin-dependent protein kinase type II subunit alpha (Homo sapiens) (UniProt Q9UQM7); assay: Inhibition of CAMK2A (unknown origin) assessed as residual activity at 1000 nM by KINOMEscan analysis relative to control
# Chain of Calcium/calmodulin-dependent protein kinase type II subunit alpha (Homo sapiens) (Q9UQM7 whole entry): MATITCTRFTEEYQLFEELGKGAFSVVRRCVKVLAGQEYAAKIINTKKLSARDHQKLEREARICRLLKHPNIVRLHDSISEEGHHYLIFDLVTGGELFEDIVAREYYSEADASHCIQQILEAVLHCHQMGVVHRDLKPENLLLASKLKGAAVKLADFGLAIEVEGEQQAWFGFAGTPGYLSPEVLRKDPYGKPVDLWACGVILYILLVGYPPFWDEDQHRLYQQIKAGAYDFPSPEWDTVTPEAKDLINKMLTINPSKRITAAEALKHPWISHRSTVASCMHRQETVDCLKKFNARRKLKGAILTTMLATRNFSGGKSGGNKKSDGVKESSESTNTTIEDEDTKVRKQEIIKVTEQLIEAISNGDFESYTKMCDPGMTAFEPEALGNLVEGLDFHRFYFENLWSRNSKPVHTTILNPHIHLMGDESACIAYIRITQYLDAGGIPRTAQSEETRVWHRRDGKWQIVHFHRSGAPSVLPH
# [3] = biological target: Macrophage colony-stimulating factor 1 receptor (Homo sapiens) (UniProt P07333); assay: Inhibition of CSF1R (unknown origin) assessed as residual activity at 1000 nM by KINOMEscan analysis relative to control
# [4] = biological target: Mitogen-activated protein kinase 3 (Homo sapiens) (UniProt P27361); assay: Inhibition of ERK1 (unknown origin) assessed as residual activity at 1000 nM by KINOMEscan analysis relative to control
# Chain of Mitogen-activated protein kinase 3 (Homo sapiens) (P27361 whole entry): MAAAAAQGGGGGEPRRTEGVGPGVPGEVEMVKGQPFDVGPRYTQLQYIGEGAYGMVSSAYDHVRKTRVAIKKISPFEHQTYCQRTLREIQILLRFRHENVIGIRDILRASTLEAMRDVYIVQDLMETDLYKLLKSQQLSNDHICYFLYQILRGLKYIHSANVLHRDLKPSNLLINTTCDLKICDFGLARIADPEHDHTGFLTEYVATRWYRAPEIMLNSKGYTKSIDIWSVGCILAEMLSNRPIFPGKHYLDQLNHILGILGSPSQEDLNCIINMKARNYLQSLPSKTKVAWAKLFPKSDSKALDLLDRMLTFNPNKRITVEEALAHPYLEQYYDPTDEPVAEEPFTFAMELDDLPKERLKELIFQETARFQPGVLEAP
# [5] = biological target: Tyrosine-protein kinase Fgr (Homo sapiens) (UniProt P09769); assay: Inhibition of FGR (unknown origin) assessed as residual activity at 1000 nM by KINOMEscan analysis relative to control
# Chain of Tyrosine-protein kinase Fgr (Homo sapiens) (P09769 2-529 limits assumed): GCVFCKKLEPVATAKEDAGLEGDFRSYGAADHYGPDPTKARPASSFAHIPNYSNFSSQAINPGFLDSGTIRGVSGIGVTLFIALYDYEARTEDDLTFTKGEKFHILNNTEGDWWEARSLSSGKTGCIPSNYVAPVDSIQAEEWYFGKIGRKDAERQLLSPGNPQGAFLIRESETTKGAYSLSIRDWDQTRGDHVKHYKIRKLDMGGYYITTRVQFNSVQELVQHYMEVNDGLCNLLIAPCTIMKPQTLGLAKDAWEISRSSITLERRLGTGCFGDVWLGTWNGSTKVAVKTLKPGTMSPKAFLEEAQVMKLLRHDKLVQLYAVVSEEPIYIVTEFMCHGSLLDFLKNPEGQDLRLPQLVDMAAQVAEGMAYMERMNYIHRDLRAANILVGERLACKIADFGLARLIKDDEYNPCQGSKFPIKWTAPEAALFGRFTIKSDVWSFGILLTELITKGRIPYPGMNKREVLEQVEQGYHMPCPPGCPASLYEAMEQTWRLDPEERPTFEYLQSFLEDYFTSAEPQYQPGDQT
# [6] = biological target: T1, Rhodopsin kinase GRK1 (Homo sapiens) (UniProt Q15835); assay: Inhibition of GRK1 (unknown origin) assessed as residual activity at 1000 nM by KINOMEscan analysis relative to control
# T1 sequence (whole entry): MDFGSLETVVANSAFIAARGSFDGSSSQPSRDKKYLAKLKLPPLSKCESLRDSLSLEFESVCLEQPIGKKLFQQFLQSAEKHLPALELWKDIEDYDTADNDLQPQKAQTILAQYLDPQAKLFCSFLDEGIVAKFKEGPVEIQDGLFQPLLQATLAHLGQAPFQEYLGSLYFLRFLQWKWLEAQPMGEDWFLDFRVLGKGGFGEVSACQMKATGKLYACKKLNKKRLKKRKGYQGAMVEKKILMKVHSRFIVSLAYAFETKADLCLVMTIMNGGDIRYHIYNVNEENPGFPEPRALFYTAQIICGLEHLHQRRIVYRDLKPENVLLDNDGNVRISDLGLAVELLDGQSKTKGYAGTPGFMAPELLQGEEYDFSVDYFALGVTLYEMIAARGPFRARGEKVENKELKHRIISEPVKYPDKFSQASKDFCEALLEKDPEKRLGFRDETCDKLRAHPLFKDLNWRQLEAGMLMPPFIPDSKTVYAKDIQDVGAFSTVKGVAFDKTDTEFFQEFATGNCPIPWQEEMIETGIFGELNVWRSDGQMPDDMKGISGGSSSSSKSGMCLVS
# [7] = species: Homo sapiens; assay: Inhibition of JNK3 (unknown origin) assessed as residual activity at 1000 nM by KINOMEscan analysis relative to control
# [8] = test system: Mast/stem cell growth factor receptor Kit (Homo sapiens), P10721 [V559D,T670I]; assay: Inhibition of KIT V559D/T670I mutant (unknown origin) assessed as residual activity at 1000 nM by KINOMEscan analysis relative to control
# Chain of Mast/stem cell growth factor receptor Kit (Homo sapiens), P10721 [V559D,T670I] (P10721 whole entry V559D/T670I): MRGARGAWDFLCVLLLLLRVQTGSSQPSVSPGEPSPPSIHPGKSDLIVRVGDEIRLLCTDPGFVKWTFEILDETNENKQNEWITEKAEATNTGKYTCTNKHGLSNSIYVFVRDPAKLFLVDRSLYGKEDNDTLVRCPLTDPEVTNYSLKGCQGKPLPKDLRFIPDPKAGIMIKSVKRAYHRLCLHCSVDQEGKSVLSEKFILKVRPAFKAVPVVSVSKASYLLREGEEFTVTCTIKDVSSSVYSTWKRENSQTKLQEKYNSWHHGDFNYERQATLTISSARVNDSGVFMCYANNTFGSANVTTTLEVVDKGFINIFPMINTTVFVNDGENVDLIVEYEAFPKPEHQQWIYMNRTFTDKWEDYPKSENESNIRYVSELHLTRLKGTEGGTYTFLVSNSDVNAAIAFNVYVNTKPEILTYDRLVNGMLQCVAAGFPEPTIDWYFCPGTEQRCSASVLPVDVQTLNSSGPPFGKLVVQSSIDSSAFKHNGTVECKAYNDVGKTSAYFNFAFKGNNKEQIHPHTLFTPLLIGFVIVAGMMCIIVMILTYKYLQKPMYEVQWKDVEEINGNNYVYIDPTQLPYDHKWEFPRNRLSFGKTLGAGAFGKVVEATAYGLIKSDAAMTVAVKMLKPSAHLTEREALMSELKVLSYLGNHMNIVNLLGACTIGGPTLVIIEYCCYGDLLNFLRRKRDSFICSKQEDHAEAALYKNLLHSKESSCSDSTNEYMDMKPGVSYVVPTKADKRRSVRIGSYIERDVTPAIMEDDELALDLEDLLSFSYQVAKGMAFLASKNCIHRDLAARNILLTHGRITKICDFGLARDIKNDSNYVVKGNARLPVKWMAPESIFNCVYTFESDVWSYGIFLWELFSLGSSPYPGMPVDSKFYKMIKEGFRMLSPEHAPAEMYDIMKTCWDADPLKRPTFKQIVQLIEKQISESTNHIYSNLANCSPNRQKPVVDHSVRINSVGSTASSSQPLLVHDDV
# [9] = test system: Mast/stem cell growth factor receptor Kit (Homo sapiens), P10721 [V559D,V654A]; assay: Inhibition of KIT V559D/V654A mutant (unknown origin) assessed as residual activity at 1000 nM by KINOMEscan analysis relative to control
# Chain of Mast/stem cell growth factor receptor Kit (Homo sapiens), P10721 [V559D,V654A] (P10721 whole entry V559D/V654A): as the sequence (P10721 whole entry V559D/T670I) above, with V654A, I670T counted along it
# [10] = biological target: Mitogen-activated protein kinase kinase kinase 1 (Homo sapiens) (UniProt Q13233); assay: Inhibition of MAP3K1 (unknown origin) assessed as residual activity at 1000 nM by KINOMEscan analysis relative to control
# [11] = biological target: Mitogen-activated protein kinase kinase kinase 4 (Homo sapiens) (UniProt Q9Y6R4); assay: Inhibition of MAP3K4 (unknown origin) assessed as residual activity at 1000 nM by KINOMEscan analysis relative to control
# [12] = biological target: Serine/threonine-protein kinase PAK 3 (Homo sapiens) (UniProt O75914); assay: Inhibition of PAK3 (unknown origin) assessed as residual activity at 1000 nM by KINOMEscan analysis relative to control
# Chain of Serine/threonine-protein kinase PAK 3 (Homo sapiens) (O75914 whole entry, looked up): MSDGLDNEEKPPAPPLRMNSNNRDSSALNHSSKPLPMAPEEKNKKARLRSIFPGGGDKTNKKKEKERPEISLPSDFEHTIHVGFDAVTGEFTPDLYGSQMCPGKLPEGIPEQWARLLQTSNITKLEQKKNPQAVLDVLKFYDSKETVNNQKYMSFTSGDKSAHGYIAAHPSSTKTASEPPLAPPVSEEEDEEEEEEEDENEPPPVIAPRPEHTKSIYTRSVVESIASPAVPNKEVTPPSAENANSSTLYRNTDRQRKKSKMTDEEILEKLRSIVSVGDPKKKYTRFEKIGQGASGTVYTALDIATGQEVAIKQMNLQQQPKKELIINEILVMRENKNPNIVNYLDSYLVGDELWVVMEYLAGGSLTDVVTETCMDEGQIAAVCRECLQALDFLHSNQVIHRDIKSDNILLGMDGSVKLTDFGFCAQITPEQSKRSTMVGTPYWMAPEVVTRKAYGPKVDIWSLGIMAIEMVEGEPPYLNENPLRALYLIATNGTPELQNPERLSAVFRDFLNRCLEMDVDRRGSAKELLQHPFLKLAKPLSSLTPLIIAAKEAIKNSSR
# [13] = biological target: Serine/threonine-protein kinase PAK 5 (Homo sapiens) (UniProt Q9P286); assay: Inhibition of PAK7 (unknown origin) assessed as residual activity at 1000 nM by KINOMEscan analysis relative to control
# Chain of Serine/threonine-protein kinase PAK 5 (Homo sapiens) (Q9P286 whole entry, looked up): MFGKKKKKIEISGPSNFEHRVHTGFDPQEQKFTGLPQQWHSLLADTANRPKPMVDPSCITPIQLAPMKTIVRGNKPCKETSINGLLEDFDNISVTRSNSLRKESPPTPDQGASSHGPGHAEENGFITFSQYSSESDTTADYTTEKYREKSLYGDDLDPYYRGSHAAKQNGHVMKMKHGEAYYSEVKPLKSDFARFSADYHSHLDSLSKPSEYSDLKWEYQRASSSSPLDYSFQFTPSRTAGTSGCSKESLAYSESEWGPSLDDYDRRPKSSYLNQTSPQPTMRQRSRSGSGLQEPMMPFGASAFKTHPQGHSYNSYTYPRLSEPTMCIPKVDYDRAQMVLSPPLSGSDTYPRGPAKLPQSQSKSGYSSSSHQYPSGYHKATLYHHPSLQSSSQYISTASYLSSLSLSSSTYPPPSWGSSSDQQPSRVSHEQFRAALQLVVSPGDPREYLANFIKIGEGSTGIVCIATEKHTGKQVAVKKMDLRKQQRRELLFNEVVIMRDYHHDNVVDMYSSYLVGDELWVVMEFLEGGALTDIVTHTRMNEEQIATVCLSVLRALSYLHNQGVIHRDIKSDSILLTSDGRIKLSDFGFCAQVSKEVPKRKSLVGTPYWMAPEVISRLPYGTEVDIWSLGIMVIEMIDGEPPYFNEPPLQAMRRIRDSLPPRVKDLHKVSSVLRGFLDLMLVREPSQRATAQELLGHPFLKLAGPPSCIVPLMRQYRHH
# [14] = biological target: Serine/threonine-protein kinase PLK3 (Homo sapiens) (UniProt Q9H4B4); assay: Inhibition of PLK3 (unknown origin) assessed as residual activity at 1000 nM by KINOMEscan analysis relative to control
# Chain of Serine/threonine-protein kinase PLK3 (Homo sapiens) (Q9H4B4 whole entry, looked up): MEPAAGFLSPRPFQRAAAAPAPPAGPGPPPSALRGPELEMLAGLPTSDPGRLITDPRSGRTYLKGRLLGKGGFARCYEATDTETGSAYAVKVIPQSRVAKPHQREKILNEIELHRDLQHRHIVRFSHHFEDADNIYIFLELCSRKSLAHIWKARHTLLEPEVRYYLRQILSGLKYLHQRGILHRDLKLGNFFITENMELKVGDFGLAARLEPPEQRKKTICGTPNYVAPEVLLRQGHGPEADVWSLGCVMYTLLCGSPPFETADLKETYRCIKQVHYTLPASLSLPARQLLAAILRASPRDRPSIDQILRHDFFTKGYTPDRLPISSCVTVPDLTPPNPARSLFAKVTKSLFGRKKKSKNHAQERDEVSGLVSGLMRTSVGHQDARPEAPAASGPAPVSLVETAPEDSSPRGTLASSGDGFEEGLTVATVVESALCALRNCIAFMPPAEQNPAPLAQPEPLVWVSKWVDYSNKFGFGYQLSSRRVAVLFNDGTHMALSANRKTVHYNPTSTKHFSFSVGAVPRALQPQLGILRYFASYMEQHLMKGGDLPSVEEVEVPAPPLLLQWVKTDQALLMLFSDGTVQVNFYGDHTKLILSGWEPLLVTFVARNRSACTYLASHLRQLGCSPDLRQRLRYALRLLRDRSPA
# [15] = biological target: T2, Serine/threonine-protein kinase TAO3 (Homo sapiens) (UniProt Q9H2K8); assay: Inhibition of TAOK3 (unknown origin) assessed as residual activity at 1000 nM by KINOMEscan analysis relative to control
# T2 sequence (whole entry): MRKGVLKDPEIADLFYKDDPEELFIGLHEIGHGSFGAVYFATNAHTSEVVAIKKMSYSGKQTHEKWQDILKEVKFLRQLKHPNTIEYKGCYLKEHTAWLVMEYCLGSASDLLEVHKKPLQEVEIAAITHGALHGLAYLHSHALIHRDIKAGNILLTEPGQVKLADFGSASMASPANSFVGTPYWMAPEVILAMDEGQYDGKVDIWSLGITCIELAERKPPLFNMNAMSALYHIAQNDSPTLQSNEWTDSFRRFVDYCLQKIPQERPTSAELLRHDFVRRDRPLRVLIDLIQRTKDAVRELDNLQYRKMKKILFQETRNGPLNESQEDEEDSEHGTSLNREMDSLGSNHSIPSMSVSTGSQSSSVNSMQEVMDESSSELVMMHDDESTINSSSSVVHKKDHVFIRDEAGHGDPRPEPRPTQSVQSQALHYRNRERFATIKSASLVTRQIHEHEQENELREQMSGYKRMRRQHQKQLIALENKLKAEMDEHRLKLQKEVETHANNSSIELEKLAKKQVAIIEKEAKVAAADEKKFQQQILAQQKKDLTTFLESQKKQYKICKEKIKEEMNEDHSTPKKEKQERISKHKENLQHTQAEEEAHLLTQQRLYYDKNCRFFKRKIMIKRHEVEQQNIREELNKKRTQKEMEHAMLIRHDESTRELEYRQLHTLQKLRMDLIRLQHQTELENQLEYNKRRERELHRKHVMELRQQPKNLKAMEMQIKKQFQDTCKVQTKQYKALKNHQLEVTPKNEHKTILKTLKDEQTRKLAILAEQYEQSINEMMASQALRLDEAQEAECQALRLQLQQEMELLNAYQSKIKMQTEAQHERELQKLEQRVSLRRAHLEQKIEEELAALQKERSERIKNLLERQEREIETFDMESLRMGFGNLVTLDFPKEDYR
# [16] = biological target: BDNF/NT-3 growth factors receptor (Homo sapiens) (UniProt Q16620); assay: Inhibition of TRKB (unknown origin) assessed as residual activity at 1000 nM by KINOMEscan analysis relative to control
# [17] = biological target: Ribosomal protein S6 kinase alpha-4 (Homo sapiens) (UniProt O75676); assay: Inhibition of C-terminal RPS6KA4 […] domain 2 (unknown origin) assessed as residual activity at 1000 nM by KINOMEscan analysis relative to control
# Chain of Calcium/calmodulin-dependent protein kinase type 1G (Homo sapiens) (Q96NX5 whole entry): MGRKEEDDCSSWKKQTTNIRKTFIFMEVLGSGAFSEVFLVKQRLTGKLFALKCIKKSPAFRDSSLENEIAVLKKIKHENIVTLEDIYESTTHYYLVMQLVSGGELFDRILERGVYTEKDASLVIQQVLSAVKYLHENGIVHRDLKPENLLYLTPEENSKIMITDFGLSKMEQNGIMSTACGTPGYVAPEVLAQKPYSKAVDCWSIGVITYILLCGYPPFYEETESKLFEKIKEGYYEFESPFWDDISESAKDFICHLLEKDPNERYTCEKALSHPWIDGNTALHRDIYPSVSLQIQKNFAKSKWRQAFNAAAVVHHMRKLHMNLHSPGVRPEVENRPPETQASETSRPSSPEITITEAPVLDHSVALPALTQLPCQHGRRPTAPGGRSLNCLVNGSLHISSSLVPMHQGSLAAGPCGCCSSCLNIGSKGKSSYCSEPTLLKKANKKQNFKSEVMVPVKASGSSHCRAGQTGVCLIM
SMILES,Activity [1],Activity [2],Activity [3],Activity [4],Activity [5],Activity [6],Activity [7],Activity [8],Activity [9],Activity [10],Activity [11],Activity [12],Activity [13],Activity [14],Activity [15],Activity [16],Activity [17]
COc1cc2ncnc(N[C@H](C)c3cccc4ccccc34)c2cc1OC,98%,95%,76%,100%,95%,94%,97%,73%,100%,100%,96%,58%,100%,81%,79%,100%,82%
COc1cc2nc(C)nc(N[C@H](C)c3cccc(-c4cn[nH]c4)c3)c2cc1OC,100%,94%,94%,100%,48%,55%,80%,92%,92%,77%,50%,34%,96%,88%,100%,98%,100%
